Two molecules from ChEMBL document CHEMBL5247643, “Discovery and Characterization of BAY-805, a Potent and Selective Inhibitor of Ubiquitin-Specific Protease USP21” (J Med Chem, 2023) can be followed below.

The source made the active and inactive calls. The rule behind the calls is not given here.

The target in experiment [1] is T1, Ubiquitin carboxyl-terminal hydrolase 8 (Homo sapiens) (UniProt P40818).
T1 sequence (whole entry): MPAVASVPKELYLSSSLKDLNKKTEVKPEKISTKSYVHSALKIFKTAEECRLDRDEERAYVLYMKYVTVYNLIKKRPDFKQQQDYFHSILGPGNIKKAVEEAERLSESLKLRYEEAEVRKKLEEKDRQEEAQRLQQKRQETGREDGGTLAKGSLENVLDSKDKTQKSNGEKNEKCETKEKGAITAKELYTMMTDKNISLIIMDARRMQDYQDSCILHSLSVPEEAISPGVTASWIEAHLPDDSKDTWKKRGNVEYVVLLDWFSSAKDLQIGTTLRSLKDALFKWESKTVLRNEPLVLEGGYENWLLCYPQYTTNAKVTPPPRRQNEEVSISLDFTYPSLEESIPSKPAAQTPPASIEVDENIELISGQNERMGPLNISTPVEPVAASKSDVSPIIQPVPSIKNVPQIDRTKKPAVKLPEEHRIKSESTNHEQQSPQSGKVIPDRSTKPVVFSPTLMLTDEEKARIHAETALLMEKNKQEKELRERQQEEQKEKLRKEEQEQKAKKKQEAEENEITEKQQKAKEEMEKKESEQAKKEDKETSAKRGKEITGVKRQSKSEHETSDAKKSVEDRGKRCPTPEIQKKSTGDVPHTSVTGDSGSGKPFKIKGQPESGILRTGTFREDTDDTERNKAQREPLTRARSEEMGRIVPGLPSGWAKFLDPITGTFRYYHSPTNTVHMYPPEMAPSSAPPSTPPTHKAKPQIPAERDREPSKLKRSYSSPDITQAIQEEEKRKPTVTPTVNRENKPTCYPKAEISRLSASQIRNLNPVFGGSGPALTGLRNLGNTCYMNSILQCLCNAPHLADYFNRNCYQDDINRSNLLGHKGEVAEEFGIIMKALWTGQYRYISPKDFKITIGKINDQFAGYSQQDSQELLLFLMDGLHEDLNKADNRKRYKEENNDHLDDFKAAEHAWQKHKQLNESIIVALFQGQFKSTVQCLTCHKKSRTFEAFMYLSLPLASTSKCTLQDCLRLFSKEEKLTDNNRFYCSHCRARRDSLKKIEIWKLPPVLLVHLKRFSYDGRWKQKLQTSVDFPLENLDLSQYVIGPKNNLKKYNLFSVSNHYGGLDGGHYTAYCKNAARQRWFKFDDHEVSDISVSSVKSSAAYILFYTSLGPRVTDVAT
The experiment is described as follows: Inhibition of human USP8 (734 to 1110 residues) expressed in Escherichia coli BL21 (DE3) using ubiquitin rhodamine 110 as substrate assessed as remaining enzyme activity at 10 to 50 uM by fluorometric assay. The note with it: dose 10-50 µM.

Experiment [2] deals with T2, Ubiquitin carboxyl-terminal hydrolase 5 (Homo sapiens) (UniProt P45974).
T2 sequence (whole entry): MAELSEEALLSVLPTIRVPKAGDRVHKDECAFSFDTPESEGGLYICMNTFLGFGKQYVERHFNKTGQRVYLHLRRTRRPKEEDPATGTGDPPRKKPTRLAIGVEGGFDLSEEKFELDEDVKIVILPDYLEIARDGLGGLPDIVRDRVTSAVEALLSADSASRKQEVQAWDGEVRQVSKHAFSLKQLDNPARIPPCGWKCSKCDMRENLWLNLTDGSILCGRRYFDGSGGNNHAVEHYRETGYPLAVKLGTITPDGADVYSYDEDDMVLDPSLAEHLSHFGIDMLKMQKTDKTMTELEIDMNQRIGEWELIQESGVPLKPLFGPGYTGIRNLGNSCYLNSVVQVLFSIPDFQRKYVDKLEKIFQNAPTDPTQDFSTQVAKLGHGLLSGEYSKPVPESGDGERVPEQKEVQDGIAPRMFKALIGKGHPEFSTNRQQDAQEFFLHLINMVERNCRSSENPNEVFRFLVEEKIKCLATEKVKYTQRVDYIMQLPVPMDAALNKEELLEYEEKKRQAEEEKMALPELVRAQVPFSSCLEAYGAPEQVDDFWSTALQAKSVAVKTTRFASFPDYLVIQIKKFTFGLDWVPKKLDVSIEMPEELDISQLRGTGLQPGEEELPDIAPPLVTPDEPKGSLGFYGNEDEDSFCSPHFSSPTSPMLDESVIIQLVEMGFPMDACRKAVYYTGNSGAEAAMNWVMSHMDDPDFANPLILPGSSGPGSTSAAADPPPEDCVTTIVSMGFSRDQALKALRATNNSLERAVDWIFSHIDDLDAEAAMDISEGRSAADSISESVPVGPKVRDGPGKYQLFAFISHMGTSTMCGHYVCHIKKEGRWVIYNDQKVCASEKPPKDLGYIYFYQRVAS
Description: Inhibition of human USP5 (1 to 835 residues) expressed in Sf9 cells using ubiquitin rhodamine 110 as substrate assessed as remaining enzyme activity at 10 to 50 uM by fluorometric assay. The conditions noted are these: dose 10-50 µM.

Experiment [3] has as its target Ubiquitin carboxyl-terminal hydrolase 9X (Homo sapiens) (UniProt Q93008). The experiment is described as follows: Inhibition of human USP9X (1551 to 1970 residues) expressed in Escherichia coli BL21 (DE3) using ubiquitin rhodamine 110 as substrate assessed as remaining enzyme activity at 10 to 50 uM by fluorometric assay. The note with it: dose 10-50 µM.
The next experiment has as its system MDA-MB-231. Description: Antiproliferative activity against human MDA-MB-231 cells assessed as reduction in cell viability up to 30 uM incubated for 72 hrs by CellTiter-Glo luminescent assay. Format: functional, cell-based. (In general: In ATP-based viability assays light output follows the ATP content of the culture.)
The target in experiment [4] is Ubiquitin carboxyl-terminal hydrolase 9X (Homo sapiens) (UniProt Q93008). The experiment is described as follows: Inhibition of human USP9X using ubiquitin rhodamine 110 as substrate at 10 to 50 uM by fluorometric assay. The conditions noted are these: dose 10-50 µM.
Sequence of Ubiquitin carboxyl-terminal hydrolase 9X (Homo sapiens) (Q93008 whole entry, the tested form may be a part): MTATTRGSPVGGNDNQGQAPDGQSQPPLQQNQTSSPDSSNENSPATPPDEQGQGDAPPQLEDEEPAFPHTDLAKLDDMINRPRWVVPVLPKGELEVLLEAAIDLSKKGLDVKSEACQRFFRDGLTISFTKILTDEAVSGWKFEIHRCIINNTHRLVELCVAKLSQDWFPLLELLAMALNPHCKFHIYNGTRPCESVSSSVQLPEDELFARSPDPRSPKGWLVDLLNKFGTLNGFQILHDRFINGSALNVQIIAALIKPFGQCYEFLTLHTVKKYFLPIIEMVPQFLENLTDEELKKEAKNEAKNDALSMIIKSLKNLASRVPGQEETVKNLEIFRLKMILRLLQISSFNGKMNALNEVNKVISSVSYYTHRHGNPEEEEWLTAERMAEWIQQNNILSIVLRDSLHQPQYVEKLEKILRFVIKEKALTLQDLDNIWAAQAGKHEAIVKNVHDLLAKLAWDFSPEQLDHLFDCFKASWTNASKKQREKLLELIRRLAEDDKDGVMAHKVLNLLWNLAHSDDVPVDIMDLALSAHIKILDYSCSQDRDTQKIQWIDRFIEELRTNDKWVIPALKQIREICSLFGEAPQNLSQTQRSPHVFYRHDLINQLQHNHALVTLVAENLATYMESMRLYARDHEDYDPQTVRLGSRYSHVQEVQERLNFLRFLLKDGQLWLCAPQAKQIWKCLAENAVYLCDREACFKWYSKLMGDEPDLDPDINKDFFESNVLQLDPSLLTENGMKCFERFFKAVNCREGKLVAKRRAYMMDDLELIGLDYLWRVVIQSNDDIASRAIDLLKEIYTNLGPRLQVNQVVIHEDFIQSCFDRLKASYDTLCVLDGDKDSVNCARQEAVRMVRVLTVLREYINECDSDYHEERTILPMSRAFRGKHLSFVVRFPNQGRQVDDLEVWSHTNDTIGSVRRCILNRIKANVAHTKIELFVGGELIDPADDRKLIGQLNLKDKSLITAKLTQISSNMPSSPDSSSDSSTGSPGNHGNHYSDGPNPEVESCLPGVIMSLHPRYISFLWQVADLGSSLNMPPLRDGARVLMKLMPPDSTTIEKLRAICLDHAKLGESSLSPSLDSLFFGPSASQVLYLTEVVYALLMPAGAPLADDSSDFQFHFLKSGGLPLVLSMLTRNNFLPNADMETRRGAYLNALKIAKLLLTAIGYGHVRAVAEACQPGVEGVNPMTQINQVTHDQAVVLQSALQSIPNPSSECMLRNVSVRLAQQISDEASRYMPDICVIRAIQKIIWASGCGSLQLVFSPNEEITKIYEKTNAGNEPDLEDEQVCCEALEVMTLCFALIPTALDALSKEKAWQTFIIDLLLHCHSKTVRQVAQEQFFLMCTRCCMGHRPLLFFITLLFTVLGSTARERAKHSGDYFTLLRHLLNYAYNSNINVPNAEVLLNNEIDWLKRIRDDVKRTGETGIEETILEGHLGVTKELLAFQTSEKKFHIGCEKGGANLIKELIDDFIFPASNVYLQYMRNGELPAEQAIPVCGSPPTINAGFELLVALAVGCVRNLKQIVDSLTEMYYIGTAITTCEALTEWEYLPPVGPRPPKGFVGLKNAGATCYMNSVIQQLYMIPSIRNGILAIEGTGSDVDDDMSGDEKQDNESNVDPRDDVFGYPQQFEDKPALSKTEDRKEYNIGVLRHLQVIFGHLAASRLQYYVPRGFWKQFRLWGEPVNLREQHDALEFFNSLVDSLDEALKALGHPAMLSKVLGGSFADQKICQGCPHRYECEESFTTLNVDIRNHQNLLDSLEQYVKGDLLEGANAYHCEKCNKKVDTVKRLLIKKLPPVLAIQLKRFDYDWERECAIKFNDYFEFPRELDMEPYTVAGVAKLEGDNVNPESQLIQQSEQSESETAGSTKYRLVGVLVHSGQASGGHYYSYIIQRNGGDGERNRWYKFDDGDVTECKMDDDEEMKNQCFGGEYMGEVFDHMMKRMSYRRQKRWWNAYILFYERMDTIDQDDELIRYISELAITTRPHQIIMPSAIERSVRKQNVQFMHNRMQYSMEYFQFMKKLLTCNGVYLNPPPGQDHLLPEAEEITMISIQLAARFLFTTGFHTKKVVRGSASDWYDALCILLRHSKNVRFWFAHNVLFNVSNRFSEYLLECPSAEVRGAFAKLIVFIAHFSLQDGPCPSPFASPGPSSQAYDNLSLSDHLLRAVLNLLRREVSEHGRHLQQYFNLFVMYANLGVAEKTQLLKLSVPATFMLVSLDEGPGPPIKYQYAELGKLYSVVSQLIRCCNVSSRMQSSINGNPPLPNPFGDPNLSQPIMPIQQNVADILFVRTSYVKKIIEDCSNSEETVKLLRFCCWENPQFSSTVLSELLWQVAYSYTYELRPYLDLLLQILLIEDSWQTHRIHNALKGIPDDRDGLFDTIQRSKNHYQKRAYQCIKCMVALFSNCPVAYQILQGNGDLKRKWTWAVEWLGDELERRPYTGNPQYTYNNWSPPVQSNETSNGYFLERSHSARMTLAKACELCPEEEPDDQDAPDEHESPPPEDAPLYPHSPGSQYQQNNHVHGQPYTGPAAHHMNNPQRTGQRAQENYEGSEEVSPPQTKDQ
In experiment [5] the target is T3, Ubiquitin carboxyl-terminal hydrolase 30 (Homo sapiens) (UniProt Q70CQ3).
T3 sequence (whole entry): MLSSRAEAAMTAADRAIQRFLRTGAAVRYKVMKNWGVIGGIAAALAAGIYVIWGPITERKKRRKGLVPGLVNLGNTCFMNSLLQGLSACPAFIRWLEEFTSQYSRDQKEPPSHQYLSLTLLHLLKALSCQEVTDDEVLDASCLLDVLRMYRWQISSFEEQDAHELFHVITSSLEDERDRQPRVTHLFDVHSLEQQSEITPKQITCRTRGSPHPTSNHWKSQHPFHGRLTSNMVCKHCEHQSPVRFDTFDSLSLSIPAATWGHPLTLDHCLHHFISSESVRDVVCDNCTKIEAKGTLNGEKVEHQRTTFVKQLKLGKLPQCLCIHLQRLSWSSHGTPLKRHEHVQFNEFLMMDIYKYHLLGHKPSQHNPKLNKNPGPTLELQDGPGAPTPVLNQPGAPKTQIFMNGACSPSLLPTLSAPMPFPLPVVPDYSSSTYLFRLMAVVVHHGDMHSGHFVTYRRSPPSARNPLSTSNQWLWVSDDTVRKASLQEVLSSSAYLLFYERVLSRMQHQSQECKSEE
The experiment is described as follows: Inhibition of human USP30 using ubiquitin rhodamine 110 as substrate at 10 to 50 uM by fluorometric assay. The note with it: dose 10-50 µM.

Turning to `CC(NC(=O)C1CCCC1)C(=O)Nc1nnc(Cc2ccc([N+](=O)[O-])cc2)s1` (racemic), the Activity in experiment [1], in experiment [2] and in experiment [3] was below 50% in each case.

Turning to `CC(C)C[C@H](NC(=O)C1(C(F)(F)F)CCCCC1)C(=O)Nc1nnc(Cc2ccc(C#N)cc2)s1`, the outcome in the experiment on MDA-MB-231 was inactive. In addition, the inhibition entry in experiment [4] and in experiment [5] was “inactive” throughout.
